# Measurements taken from patent US20060173171A1, “Techniques and compositions for diagnosis and treatment of cancer (muci)” (priority 2003, published 2006).
# Test system: ligands in breast tumor cell lysates
# Assay: Ligand fishing from cell lysates with PSMGFR peptide on NTA-Ni beads, silver-stained gel
# Assay type: binding, human
# Experimental: In an effort to identify ligands to the MUC1 receptor, synthetic, His-var-PSMGFR peptides, […] (SEQ ID NO: 2), which is representative of the portion of the MUC1 receptor, that remains attached to the cell surface after cleavage of the interchain binding region, were loaded onto NTA-Ni beads (cat. #1000630; available from Qiagen GmbH, Germany) and incubated with cell lysates in the presence (FIG. 9) or absence (FIG. 10) of the protease inhibitor PMSF (phenyl methyl sulfonyl fluoride). Lysates from T47D cells were used because this breast tumor cell line is known to overexpress MUC1 and MUC1 ligand(s). T47D cells were cultured then sonicated for 1 minute to lyse the cells. Lysates were mixed with the PSMGFR peptide-presenting beads and incubated on ice with intermittent mixing for 1 hr. As a negative control, an irrelevant peptide, HHHHHHGEFTGTYITAVT (SEQ ID NO: 13), was attached to NTA-Ni beads and treated identically. Both sets of beads were washed 2× with phosphate buffer pH 7.4. Bound protein species were eluted by 3 additions of 100 uL of phosphate buffer that also contained 250 mM imidazole. For both the peptides, a portion of the first elution was removed and reserved to run as a separate sample, while the remainder was combined with the other 2 elutions and concentrated by TCA (tri-chloro acetic acid)-precipitation (Chen, L. et al., Anal. Biochem. Vol 269; pgs 179-188; 1999). […]
sequence,measurement,setting,value
GTINVHDVETQFNQYKTEAASPYNLTISDVSVSDVPFPFSAQSGAHHHHHH [PSMGFR peptide],protein species bound from T47D lysate,"in the absence of PMSF, FIG. 10",bound distinguishably to one peptide
same,protein species bound from T47D lysate,"in the presence of PMSF, FIG. 9",bound distinguishably to three peptides
